# System: native Ca2+ current (Cav channels) in DRG neurons
# Test: Voltage-clamp recording of native Ca2+ current in DRG neurons
# Assay type: cell-based
# Conditions: 10 μM; mouse DRG neurons
# Protocol: To investigate the mechanism of action of WN2-R and facilitate animal model experiments, we used voltage-clamp recording to test the effects of WN2-R on the native Na^+-, K^+-, and Ca^2+-mediated currents in DRG neurons. […] Furthermore, the effects of WN2-R on membrane excitability were examined in small (<30 μm) DRG neurons from mice using current-clamp recordings.
# DRG isolation and culture were performed according to our previous report. Briefly, C57BL/6 mice (weight 18 to 20 g, 6 to 8 weeks) were euthanized via cervical dislocation under anesthesia. Lumbar DRGs were isolated from the L4 to L5 segments of the lumbar spinal cord. The DRG neurons were subsequently dissociated through enzymatic digestion with collagenase (0.32 mg/ml) and trypsin (0.15 mg/ml) at 37 °C for 30 min, with intermittent shaking. After centrifugation at 800 rpm for 5 min at room temperature, the cells were seeded onto poly-L-lysine-coated coverslips and cultured in DMEM (Gibco) supplemented with 10% fetal bovine serum (Gibco). […]
# For recording Nav currents of DRG neurons, the bath solution contains (in mM) 30 NaCl, 1 MgCl2, 1.8 CaCl2, 5 CsCl, 5 KCl, 25 D-glucose, 5 HEPES, 0.1 CdCl2, and TEA-Cl (pH 7.4 with NaOH), and the pipette solution contains (in mM) 135 CsCl, 10 NaCl, and 5 HEPES (pH 7.4 with CsOH). The Nav current program is recorded following the above method. […]
smiles,measurement,value
Cc1ccc(Cn2cc([C@H](CC(=O)NCCN(C)C)c3ccc(F)cc3)c3ccccc32)cc1 [WN2-R],Effect on native Ca2+ current,almost no effect
